Measured values published in patent US9963461B2, “Phillygenin ibuprofen ester, preparation method therefor, and application thereof” (priority 2014, dated 2018).
Marks after values point to notes of the source that are not given here.

How the values were obtained:
[1] = test system: rabbit fever induced by typhoid and paratyphoid vaccine; test: Rabbit fever induced by typhoid and paratyphoid vaccine; format: in vivo, Japanese white rabbits
Method: Japanese male big-ear white rabbits, weighing 1.5-2.0 kg. Before the test, WSC-411P portable digital thermometer was used to measure the normal rectal temperature twice (with certain interval for each time), and the average value was taken as the normal body temperature. Then 48 Japanese big-ear white rabbits with body temperature of 38-39.6° C. were selected and randomly divided into 8 groups by weight, namely: the blank control (normal saline) group, the model control (0.5% carboxymethylcellulose) group, the ibuprofen group (300 mg/kg), the phillygenin group (10 mg/kg), the 1.25, 2.5, and 5 mg/kg phillygenin ibuprofen ester groups and the positive drug paracetamol (50 mg/kg) group. The rabbits were fixed in a fixator. The blank control group was intravenously injected with normal saline of 1 ml/kg via the ear margin; The model control group and the drug groups were intravenously injected with typhoid and paratyphoid vaccines of 0.8 ml/kg via the ear margin. When the body temperature rise of the rabbits was greater than 1° C. (requiring about 1-1.5 h, which was restricted to 1 h in this test), the blank control group and the model group were administered intragastrically with 0.5% carboxymethycellulose of 1 ml/kg, and the drug groups were administered intragastrically with phillygenin ibuprofen ester and paracetamol. […]

[2] = test system: influenza and parainfluenza virus induced pneumonia; test: Histomorphology observation of lung; format: in vivo, Kunming mice; settings: high dosage and medium dosage groups, Day 5 after treatment
Method: On Day 5 after treatment, the lungs of mice in each group were picked, and general pathological changes of their viscera are observed by naked eyes and are recorded. The lungs were rinsed with normal saline and moisture thereon is sucked up by using filter paper, a part of the lung was fixed with 10% formaldehyde and embedded with paraffin and sliced, and the lung tissue slices were stained with HE, followed by observation and photographing under a microscope.

[3] = test system: rat toe swelling induced by carrageenan; test: Rat toe swelling induced by carrageenan; format: in vivo, Wistar rats
Method: The test groups were administered by sublingual intravenous injection. Before the test, capillary magnification measurement method was used to measure the normal volume of the right hind foot of the rats in each group. To avoid errors, the measurement location was fixed and the operation was made by one person both before and after the administration. The average value of the two measurements was taken as the normal volume of the right hind foot of the rats before administration. […] The difference between the groups was compared by inter-group t test processing through the difference percentage (swelling ratio) of the paw volume before and after the induced rat inflammation.

[4] = test system: Adenovirus (AdV); test: Impact of the drugs on the virus-induced cytopathy (MTT); format: cell-based; settings: ADV 100 TCID50, Vero cells, about the maximal non-cytotoxic concentration, 72 hours
[5] = 1.25 mg/kg, time after administration (min) 120
[6] = 1.25 mg/kg, time after administration (min) 180
[7] = 2.5 mg/kg, time after administration (min) 30
[8] = 2.5 mg/kg, time after administration (min) 60
[9] = 2.5 mg/kg, time after administration (min) 90
[10] = 2.5 mg/kg, time after administration (min) 120
[11] = 2.5 mg/kg, time after administration (min) 180
[12] = 5.0 mg/kg, time after administration (min) 30
[13] = 5.0 mg/kg, time after administration (min) 90
[14] = 5.0 mg/kg, time after administration (min) 120
[15] = 5.0 mg/kg, time after administration (min) 180

COc1ccc([C@H]2OCC3C2CO[C@H]3c2ccc(OC)c(OC(=O)C(C)c3ccc(CC(C)C)cc3)c2)cc1OC (some centres unmarked) [Phillygenin ibuprofen ester, phillygenin ibuprofen ester]
antipyretic percentage (%) ([1]; 1.25 mg/kg, time after administration (min) 90): −1.40 ± 0.20 % | Body temperature (° C.) [1, 5]: 40.29 ± 0.42 °C | antipyretic percentage (%) [1, 5]: −1.92 ± 0.31 % | Body temperature (° C.) [1, 6]: 40.10 ± 0.35 °C | antipyretic percentage (%) [1, 6]: −2.39 ± 0.43 % | Body temperature (° C.) [1, 7]: 40.83 ± 0.39 °C | antipyretic percentage (%) [1, 7]: −1.10 ± 0.00 % | Body temperature (° C.) [1, 8]: 40.37 ± 0.33 °C | antipyretic percentage (%) [1, 8]: −2.20 ± 0.05**^Δ▴▴ % | Body temperature (° C.) [1, 9]: 40.12 ± 0.21 °C | antipyretic percentage (%) [1, 9]: −2.81 ± 0.12 % | Body temperature (° C.) [1, 10]: 40.02 ± 0.20 °C | antipyretic percentage (%) [1, 10]: −3.06 ± 0.43 % | Body temperature (° C.) [1, 11]: 39.90 ± 0.25 °C | antipyretic percentage (%) [1, 11]: −3.35 ± 0.29 % | antipyretic percentage (%) ([1]; 5.0 mg/kg, 60 min after administration): −2.61 ± 0.10**^ΔΔ▴▴ % | Body temperature (° C.) [1, 12]: 40.57 ± 0.28 °C | antipyretic percentage (%) [1, 12]: −1.30 ± 0.11 % | Body temperature (° C.) ([1]; 5.0 mg/kg, time after administration (min) 60): 40.04 ± 0.20 °C | Body temperature (° C.) [1, 13]: 39.88 ± 0.23 °C | antipyretic percentage (%) [1, 13]: −2.98 ± 0.22 % | Body temperature (° C.) [1, 14]: 39.65 ± 0.20 °C | antipyretic percentage (%) [1, 14]: −3.54 ± 0.18***^Δ▴▴▴ % | Body temperature (° C.) [1, 15]: 39.42 ± 0.25 °C | antipyretic percentage (%) [1, 15]: −4.10 ± 0.17***^Δ▴▴ % | effect on rabbit fever induced by the typhoid and paratyphoid vaccines vs model group ([1]; high and medium dose groups (5, 10 mg/kg) 30-240 min, low dose group (5 mg/kg) 60-240 min after administration): significant antipyretic effect | lung lesions of mice (lung histology, HE) [2]: significantly alleviated | Swelling ratio (%) ([3]; 2.5 mg/kg sublingual intravenous injection, 30 min): 0.215 ± 0.120% | Swelling ratio (%) ([3]; 2.5 mg/kg sublingual intravenous injection, 60 min): 0.293 ± 1.117% | Swelling ratio (%) ([3]; 2.5 mg/kg sublingual intravenous injection, 120 min): 0.450 ± 0.254% | Swelling ratio (%) ([3]; 2.5 mg/kg sublingual intravenous injection, 180 min): 0.800 ± 0.339% | Swelling ratio (%) ([3]; 2.5 mg/kg sublingual intravenous injection, 240 min): 0.865 ± 0.303% | Swelling ratio (%) ([3]; 2.5 mg/kg sublingual intravenous injection, 300 min): 1.045 ± 0.308% | Swelling ratio (%) ([3]; 2.5 mg/kg sublingual intravenous injection, 360 min): 0.930 ± 0.200% | Swelling ratio (%) ([3]; 5.0 mg/kg sublingual intravenous injection, 30 min): 0.065 ± 0.112 % | Swelling ratio (%) ([3]; 5.0 mg/kg sublingual intravenous injection, 60 min): 0.127 ± 0.178 % | Swelling ratio (%) ([3]; 5.0 mg/kg sublingual intravenous injection, 120 min): 0.209 ± 0.438 % | Swelling ratio (%) ([3]; 5.0 mg/kg sublingual intravenous injection, 180 min): 0.338 ± 0.524 % | Swelling ratio (%) ([3]; 5.0 mg/kg sublingual intravenous injection, 240 min): 0.461 ± 0.402**^Δ % | Swelling ratio (%) ([3]; 5.0 mg/kg sublingual intravenous injection, 300 min): 0.688 ± 0.503% | Swelling ratio (%) ([3]; 5.0 mg/kg sublingual intravenous injection, 360 min): 0.675 ± 0.578% | Swelling ratio (%) ([3]; 10.0 mg/kg sublingual intravenous injection, 30 min): 0.025 ± 0.210***^Δ▴▴▴ % | Swelling ratio (%) ([3]; 10.0 mg/kg sublingual intravenous injection, 60 min): 0.079 ± 0.156**^Δ▴▴ % | Swelling ratio (%) ([3]; 10.0 mg/kg sublingual intravenous injection, 120 min): 0.140 ± 0.156 % | Swelling ratio (%) ([3]; 10.0 mg/kg sublingual intravenous injection, 180 min): 0.191 ± 0.216 % | Swelling ratio (%) ([3]; 10.0 mg/kg sublingual intravenous injection, 240 min): 0.255 ± 0.294 % | Swelling ratio (%) ([3]; 10.0 mg/kg sublingual intravenous injection, 300 min): 0.310 ± 0.226***^Δ▴▴ % | Swelling ratio (%) ([3]; 10.0 mg/kg sublingual intravenous injection, 360 min): 0.405 ± 0.231 % | effect on the rat paw swelling induced by carrageenin vs blank control group ([3]; high dose group, within 30 min to 360 min after administration): significant inhibitive effects | antiviral effective rate (ER %) [4]: 75.90**^## %
